From patent US6627603B1, “Method for releasing an active principle contained a multiple emulsion” (Centre National de la Recherche Scientifiquue (C.N.R.S.), priority 1997, dated 2003)

Tests used:
Assay type in all cases: physicochemical
[1] = Transfer of inverse-emulsion water droplets to an aqueous surfactant phase, detected by AgCl precipitate
Protocol: In a first step, a monodisperse water-in-dodecane inverse emulsion which is stabilized with Span 80® (sorbitan monooleate from the company Sigma) is prepared. This emulsion is prepared by slowing introducing the disperse aqueous phase (80% by volume) with gentle shearing (of the order of 1000 s^−1) into a continuous phase composed of a dodecane/Span 80 mixture in a 1/1 ratio by weight. Sodium chloride NaCl (0.1M), intended to simulate the presence of the active principle in the aqueous phase A1, is added. Advantageously, it has been shown that the presence of this salt reinforces the stability of the inverse emulsion Ei (Aronson M. P., Petko M. F., J. Colloid Interface Sci., 1993, 159, 134). The initial polydisperse emulsion is converted by a fractional crystallisation technique (Bibette J., J. Colloid Interface Sci., 1991, 147, 474) into a monodisperse emulsion.
Several multiple emulsions were subsequently prepared from this inverse emulsion by mixing it with an aqueous solution comprising sodium dodecyl sulphate (SDS, HLB=40) at various concentrations below or greater than its critical micelle concentration, which is 8×10^−3 mol/l.
The test consists in carefully bringing together (over an area of 1 cm^2) equivalent volumes (1 cm^3) of the inverse emulsion and of water comprising variable amounts of SDS surfactant and a concentration of AgNO3 at a concentration of 10^−3 mol/l. The transfer of the water present in the inverse droplets to the macroscopic aqueous phase is detected by observation of an AgCl precipitate which is formed at the macroscopic interface when the internal contents transfer to the external phase. This is because, when the water droplets move via a coalescence phenomenon from the upper inverse emulsion to the lower aqueous phase, the upper phase gradually becomes transparent whereas the lower phase gradually becomes milky.
Above this limit concentration, the water droplets quickly transfer (in less than 48 hours) within the second phase. […]

[2] = Stability of the multiple emulsion versus surfactant concentration in the external phase (microscope)
Protocol: In this test, a multiple emulsion is prepared by dispersing the inverse emulsion in a continuous aqueous phase comprising the SDS surfactant at a concentration equal to one tenth of its critical micelle concentration. The inverse phase is the same as that described above in Example 1: the fraction by volume of water drops is present therein at a concentration of 10% by volume with 0.1 mol/l of NaCl for a concentration of surfactant of 2%. The multiple emulsion is therefore composed of 90% by volume of an external aqueous phase and of 10% of the inverse phase. A high degree of shearing, of the order of 10,000 revolutions per minute, is applied using an Ultra-turrax device for 10 seconds to a total volume of […] of the overall composition, which results in the appearance of double drops in which the water content and the size of the droplets are retained.
Double drops are observed, with each of them comprising small inverse water drops.
This test is repeated, the concentration of the surfactant within the external aqueous phase Ce being varied and the double emulsion being freshly prepared, and the duration of existence of the internal water droplets is recorded. […] This transition takes place for exactly the same concentration as that mentioned in Example 1, that is to say approximately 10 CMC. […] It is thus observed, under a microscope, that only phenomena of coalescence between the tiny inverse water drops and the interface of the direct drops are responsible for the change which is observed.
Only a gradual decrease in the concentration of internal droplets is observed.

[3] = Potentiometric determination of salt (KCl) release from a monodisperse double emulsion
Protocol: A monodisperse water-in-dodecane inverse emulsion which is stabilized with Span 80 is prepared.
The aqueous phase (80% by volume) is introduced with gentle shearing (of the order of 1000 s^−1) into a continuous phase composed of a dodecane/Span mixture (1:1 by mass). The aqueous phase comprises 1 mol per liter of potassium chloride. This salt acts as active substance which has to be released. The initial polydisperse emulsion is converted by a fractional crystallisation technique, so as to obtain a monodisperse emulsion (Bibette J., J. Colloid Interface Sci., 1991, 147, 474).
The preceding inverse emulsion is emulsified in its turn in an aqueous phase comprising a hydrophilic surface active agent (SDS). A double emulsion is thus obtained composed of oily globules comprising water droplets, which droplets result from the first stage.
The double emulsion is manufactured using a microfluidizer (Jet homogenizer from Labplant). This method consists in bringing the disperse phase and the continuous phase into contact under very high pressure and in then injecting the mixture via a hole with a small diameter (0.1 mm).
The concentration of the KCl initially incorporated in the internal aqueous phase of the double emulsion is measured in the external aqueous phase by potentiometry.
The potentiometric quantitative determination is based on the measurement of a difference in potential between an indicator electrode (Ag/AgCl) and a reference electrode (mercurous sulphate electrode) which are immersed in the colloidal solution comprising the electrolyte to be quantitatively determined (Cl^− ion). The concentration of the Cl^− ion is in this case directly related to the potential ΔE of the Ag/AgCl electrode by a relationship of the type:
ΔE=β+α log Cq (Nernst relationship).
It is then possible, via a calibration line, to know at any moment the concentration of Cl^− ion released into the external aqueous phase.
The results obtained are presented in graphical form in FIG. 1. […]

[4] = Characteristic release time by phase-contrast optical microscopy; settings: assessed visually using a microscope
Protocol: Various emulsions are prepared according to the procedure defined in Example No. 1. The concentration of the surface-active agent (SDS) present in the external aqueous phase is varied and the change over time of the double emulsion is observed with a phase-contrast optical microscope (Zeiss Axiovert 100). The curve in FIG. 2 describes the change in the characteristic release time as a function of the concentration of surface-active agent present in the external aqueous phase. The characteristic release time is defined as the time at the end of which virtually all the droplets of phase A1 have been released into the external aqueous phase A2 (by coalescence). As indicated, this time is assessed visually using a microscope. It will be noted that the release time changes from several days, when the concentration is less than 10 CMC, to only a few hours, when the concentration is equal to 40 CMC.

[5] = Multiple emulsions with Tween 80 in aqueous phase A2: transfer of internal water droplets; settings: Tween 80 as surfactant in aqueous phase A2
Protocol: Multiple emulsions are prepared according to the procedure described in the preceding examples by using Tween 80 in the aqueous phase A2 as surfactant. Its HLB is 15 and its critical micelle concentration is […]. The same type of result is observed. Transfer of the internal water droplets is also dependent on the concentration Ce of the surfactant in the external phase. In this case, the limit concentration is approximately 200 CMC.
It is observed for this surfactant that the internal water droplets coalesce with one another. This instability appears rapidly and results in a few internal water drops with a greater surface area, still imprisoned in the oily globules.

SMILES | time for transfer of the water droplets within the second phase ([1]; above the limit concentration (approximately 10 CMC)) | concentration at which transfer via coalescence takes place ([1]; same test with gentle centrifuging for 15 minutes) [CMC] | limit concentration of surfactant below which the water droplets do not transfer to the second phase ([1]; water-in-dodecane inverse emulsion (Span 80, NaCl 0.1M) on water with AgNO3 10^−3 mol/l, no transfer even for several days below the limit) | coalescence between the big double globules ([2]; SDS at one tenth of its CMC in external phase, after storage for two months) | period of time for conversion into a direct emulsion ([2]; SDS concentration above the transition (approximately 10 CMC)) | duration for which the double emulsion is retained ([2]; SDS concentration below the transition (approximately 10 CMC)) | concentration at which the double emulsion is converted into a direct emulsion (transition) ([2]; freshly prepared double emulsion, NaCl 0.1 mol/l internal phase, Span 80 2%) | concentration threshold ([3]; KCl double emulsion, globules 4 μm, droplets 0.3 μm) [CMC] | time corresponding to complete release of the salt ([3]; SDS concentration greater or equal to 10 CMC, KCl 1 mol per liter in internal phase, release by coalescence) | release of the salt into the external aqueous phase ([3]; SDS concentration less than 10 CMC, passive diffusion, emulsion retains its double nature) | characteristic release time ([4]; SDS concentration equal to 40 CMC) | characteristic release time ([4]; SDS concentration less than 10 CMC) | limit concentration for transfer of the internal water droplets [5]
CCCCCCCCCCCCOS(=O)(=O)[O-].[Na+] [SDS, sodium dodecyl sulphate] | less than 48 hours | 10 | approximately 10 CMC | No phenomenon of coalescence | a few hours | more than one month | approximately 10 CMC | 10 | less than 500 minutes | very slow | a few hours | several days | 
CCCCCCCC/C=C\CCCCCCCC(=O)OCCOCC(OCCO)C1OCC(OCCO)C1OCCO (stereo not shown) [Tween 80] |  |  |  |  |  |  |  |  |  |  |  |  | approximately 200 CMC
